Tests used:
[1] = biological target: Beta-1 adrenergic receptor (Homo sapiens, UniProt P08588); assay type: functional, cell-based
[2] = biological target: Sodium channel protein type 5 subunit alpha (Homo sapiens, UniProt Q14524); assay type: functional, cell-based
[3] = biological target: 5-hydroxytryptamine receptor 6 (Homo sapiens, UniProt P50406)
Adenosine receptor A1 = biological target: T1, Adenosine receptor A1 (Homo sapiens, UniProt P30542)
T1 sequence (P30542 whole entry): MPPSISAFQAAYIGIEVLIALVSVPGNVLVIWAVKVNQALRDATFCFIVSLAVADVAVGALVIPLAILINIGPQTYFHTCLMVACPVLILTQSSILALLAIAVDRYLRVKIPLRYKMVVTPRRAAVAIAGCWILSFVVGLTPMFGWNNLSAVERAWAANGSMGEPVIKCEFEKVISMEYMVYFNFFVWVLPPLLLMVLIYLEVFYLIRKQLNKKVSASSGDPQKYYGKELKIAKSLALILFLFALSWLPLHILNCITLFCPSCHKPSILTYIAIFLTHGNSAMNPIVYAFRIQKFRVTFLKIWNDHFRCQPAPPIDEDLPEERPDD

[4] = biological target: T2, Corticotropin-releasing factor receptor 2 (Homo sapiens, UniProt Q13324)
T2 sequence (Q13324 whole entry): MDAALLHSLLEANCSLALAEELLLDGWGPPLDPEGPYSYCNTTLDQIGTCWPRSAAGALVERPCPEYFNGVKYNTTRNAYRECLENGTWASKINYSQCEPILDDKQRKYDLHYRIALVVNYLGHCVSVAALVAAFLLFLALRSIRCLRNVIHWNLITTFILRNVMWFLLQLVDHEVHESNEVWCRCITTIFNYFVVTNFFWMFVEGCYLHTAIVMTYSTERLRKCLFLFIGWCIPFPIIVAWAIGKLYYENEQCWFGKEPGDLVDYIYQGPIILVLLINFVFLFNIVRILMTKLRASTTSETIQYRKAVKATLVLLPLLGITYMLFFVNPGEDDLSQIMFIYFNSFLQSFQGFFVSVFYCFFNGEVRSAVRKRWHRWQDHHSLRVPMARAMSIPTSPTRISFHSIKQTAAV

[5] = biological target: T3, Corticotropin-releasing factor receptor 1 (Homo sapiens, UniProt P34998)
T3 sequence (P34998 whole entry): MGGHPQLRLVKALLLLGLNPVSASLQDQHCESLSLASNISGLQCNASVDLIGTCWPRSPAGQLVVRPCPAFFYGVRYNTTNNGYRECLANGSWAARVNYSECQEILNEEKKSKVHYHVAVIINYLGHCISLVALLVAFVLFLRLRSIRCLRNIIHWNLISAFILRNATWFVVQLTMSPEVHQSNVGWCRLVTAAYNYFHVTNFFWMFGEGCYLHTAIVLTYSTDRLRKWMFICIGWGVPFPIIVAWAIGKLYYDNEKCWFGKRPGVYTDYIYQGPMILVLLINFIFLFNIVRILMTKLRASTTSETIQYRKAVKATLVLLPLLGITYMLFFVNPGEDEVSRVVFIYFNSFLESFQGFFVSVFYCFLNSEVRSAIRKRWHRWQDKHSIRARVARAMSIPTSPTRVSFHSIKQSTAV

[6] = biological target: Gamma-aminobutyric acid receptor subunit alpha-1 (Rattus norvegicus, UniProt P62813)
[7] = biological target: T4, Amine oxidase [flavin-containing] A (Homo sapiens, UniProt P21397); assay type: functional
T4 sequence (P21397 whole entry): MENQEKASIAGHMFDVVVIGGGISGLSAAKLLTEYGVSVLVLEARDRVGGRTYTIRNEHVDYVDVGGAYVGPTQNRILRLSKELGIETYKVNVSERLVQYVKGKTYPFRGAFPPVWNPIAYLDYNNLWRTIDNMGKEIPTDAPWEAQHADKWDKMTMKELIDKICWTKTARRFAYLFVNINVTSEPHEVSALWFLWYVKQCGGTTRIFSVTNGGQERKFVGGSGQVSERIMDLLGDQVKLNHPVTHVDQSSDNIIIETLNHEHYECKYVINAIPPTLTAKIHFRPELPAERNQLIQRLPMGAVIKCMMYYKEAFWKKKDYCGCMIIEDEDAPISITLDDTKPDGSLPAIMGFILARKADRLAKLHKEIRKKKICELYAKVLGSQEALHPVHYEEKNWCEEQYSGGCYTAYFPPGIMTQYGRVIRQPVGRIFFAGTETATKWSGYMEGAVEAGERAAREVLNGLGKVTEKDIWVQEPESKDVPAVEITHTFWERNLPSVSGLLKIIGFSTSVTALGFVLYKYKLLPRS

[8] = biological target: T5, Neuropeptide Y receptor type 2 (Homo sapiens, UniProt P49146)
T5 sequence (P49146 whole entry): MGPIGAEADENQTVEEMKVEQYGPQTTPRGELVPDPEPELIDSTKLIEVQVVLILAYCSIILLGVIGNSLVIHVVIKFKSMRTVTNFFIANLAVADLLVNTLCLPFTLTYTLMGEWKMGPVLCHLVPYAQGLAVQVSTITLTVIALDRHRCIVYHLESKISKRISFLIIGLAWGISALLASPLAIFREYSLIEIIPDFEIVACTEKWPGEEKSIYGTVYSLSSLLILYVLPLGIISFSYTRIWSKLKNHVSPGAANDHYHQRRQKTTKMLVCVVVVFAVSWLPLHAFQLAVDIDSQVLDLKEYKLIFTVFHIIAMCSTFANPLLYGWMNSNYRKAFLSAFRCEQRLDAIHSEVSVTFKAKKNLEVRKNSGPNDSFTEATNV

[9] = biological target: Hydroxycarboxylic acid receptor 2 (Homo sapiens, UniProt Q8TDS4)
Substance-K receptor = biological target: T6, Substance-K receptor (Homo sapiens, UniProt P21452)
T6 sequence (P21452 whole entry): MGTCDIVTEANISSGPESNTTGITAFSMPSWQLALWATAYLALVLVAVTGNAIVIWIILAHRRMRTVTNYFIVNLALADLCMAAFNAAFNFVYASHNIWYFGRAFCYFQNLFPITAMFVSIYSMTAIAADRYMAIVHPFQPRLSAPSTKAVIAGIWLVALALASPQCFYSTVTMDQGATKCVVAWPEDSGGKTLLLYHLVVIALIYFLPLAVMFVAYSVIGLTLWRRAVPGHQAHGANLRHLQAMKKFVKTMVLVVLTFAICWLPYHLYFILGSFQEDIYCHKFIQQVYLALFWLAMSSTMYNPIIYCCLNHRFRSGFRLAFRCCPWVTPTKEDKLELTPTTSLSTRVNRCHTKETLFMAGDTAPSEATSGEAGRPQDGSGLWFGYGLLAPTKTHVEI

[10] = biological target: Rod cGMP-specific 3',5'-cyclic phosphodiesterase subunit alpha (Homo sapiens, UniProt P16499); assay type: functional
[11] = biological target: 5-hydroxytryptamine receptor 5A (Homo sapiens, UniProt P47898)
Note: assay procedure not described here.

Sodium channel protein type 5 subunit alpha, sequence (Q14524 whole entry): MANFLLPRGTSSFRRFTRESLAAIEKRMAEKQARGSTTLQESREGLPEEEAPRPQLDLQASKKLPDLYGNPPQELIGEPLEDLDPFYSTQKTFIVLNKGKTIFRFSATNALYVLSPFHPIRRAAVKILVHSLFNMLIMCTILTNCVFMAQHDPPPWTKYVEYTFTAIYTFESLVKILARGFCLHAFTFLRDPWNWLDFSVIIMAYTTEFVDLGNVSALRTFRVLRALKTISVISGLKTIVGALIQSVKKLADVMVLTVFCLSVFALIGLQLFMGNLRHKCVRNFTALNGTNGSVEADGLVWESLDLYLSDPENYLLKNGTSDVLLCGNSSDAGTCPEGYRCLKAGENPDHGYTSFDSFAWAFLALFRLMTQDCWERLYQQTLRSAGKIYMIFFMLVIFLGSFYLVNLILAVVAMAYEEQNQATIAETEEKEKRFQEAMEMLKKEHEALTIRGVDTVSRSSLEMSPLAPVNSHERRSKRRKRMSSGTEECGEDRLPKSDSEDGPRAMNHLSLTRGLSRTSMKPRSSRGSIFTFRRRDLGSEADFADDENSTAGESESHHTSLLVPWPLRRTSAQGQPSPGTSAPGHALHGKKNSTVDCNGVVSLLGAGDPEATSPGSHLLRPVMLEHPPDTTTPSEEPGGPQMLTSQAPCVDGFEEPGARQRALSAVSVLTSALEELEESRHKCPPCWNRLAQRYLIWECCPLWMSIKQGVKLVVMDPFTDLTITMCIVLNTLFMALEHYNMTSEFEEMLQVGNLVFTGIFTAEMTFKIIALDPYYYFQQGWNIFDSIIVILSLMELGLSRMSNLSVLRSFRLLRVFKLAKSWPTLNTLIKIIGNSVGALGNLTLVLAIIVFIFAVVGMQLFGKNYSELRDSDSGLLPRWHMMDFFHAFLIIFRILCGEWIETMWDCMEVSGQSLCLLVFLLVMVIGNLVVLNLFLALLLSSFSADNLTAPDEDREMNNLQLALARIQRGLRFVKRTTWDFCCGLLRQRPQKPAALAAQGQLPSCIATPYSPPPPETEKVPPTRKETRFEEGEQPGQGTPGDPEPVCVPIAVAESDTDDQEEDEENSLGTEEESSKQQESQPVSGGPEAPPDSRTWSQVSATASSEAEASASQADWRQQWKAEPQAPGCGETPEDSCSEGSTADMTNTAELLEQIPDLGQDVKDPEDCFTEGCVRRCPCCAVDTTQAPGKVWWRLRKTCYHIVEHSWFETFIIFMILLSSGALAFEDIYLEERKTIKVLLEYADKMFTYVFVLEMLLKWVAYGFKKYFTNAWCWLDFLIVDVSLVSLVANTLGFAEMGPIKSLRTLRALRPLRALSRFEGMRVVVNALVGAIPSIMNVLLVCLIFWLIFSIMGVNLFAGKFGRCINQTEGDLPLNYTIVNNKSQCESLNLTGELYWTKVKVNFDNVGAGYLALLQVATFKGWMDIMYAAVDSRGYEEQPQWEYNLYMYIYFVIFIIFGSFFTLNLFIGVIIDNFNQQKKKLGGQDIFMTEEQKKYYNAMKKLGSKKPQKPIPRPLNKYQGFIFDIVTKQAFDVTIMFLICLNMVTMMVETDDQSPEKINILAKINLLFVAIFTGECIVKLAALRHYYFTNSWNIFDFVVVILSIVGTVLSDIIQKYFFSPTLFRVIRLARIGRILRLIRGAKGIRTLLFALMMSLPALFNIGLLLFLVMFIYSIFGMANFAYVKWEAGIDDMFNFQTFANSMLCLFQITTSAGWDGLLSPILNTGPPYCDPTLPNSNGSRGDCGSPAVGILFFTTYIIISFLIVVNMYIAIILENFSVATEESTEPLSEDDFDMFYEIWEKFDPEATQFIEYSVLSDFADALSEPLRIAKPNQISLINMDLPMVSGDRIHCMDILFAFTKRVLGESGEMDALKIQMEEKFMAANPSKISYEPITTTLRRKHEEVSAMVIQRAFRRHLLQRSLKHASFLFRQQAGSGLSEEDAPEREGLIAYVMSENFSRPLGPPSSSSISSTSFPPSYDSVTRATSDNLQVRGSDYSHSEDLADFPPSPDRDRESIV
5-hydroxytryptamine receptor 5A, sequence (P47898 whole entry): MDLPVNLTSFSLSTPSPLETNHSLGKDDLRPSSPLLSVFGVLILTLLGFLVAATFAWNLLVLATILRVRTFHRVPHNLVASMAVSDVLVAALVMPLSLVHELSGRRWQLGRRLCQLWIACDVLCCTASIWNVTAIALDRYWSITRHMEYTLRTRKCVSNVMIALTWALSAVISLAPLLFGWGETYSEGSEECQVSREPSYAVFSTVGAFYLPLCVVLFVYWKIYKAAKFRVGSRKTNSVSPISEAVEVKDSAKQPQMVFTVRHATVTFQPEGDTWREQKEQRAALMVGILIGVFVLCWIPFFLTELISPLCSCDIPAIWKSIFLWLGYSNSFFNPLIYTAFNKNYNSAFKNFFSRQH
Rod cGMP-specific 3',5'-cyclic phosphodiesterase subunit alpha, sequence (P16499 whole entry): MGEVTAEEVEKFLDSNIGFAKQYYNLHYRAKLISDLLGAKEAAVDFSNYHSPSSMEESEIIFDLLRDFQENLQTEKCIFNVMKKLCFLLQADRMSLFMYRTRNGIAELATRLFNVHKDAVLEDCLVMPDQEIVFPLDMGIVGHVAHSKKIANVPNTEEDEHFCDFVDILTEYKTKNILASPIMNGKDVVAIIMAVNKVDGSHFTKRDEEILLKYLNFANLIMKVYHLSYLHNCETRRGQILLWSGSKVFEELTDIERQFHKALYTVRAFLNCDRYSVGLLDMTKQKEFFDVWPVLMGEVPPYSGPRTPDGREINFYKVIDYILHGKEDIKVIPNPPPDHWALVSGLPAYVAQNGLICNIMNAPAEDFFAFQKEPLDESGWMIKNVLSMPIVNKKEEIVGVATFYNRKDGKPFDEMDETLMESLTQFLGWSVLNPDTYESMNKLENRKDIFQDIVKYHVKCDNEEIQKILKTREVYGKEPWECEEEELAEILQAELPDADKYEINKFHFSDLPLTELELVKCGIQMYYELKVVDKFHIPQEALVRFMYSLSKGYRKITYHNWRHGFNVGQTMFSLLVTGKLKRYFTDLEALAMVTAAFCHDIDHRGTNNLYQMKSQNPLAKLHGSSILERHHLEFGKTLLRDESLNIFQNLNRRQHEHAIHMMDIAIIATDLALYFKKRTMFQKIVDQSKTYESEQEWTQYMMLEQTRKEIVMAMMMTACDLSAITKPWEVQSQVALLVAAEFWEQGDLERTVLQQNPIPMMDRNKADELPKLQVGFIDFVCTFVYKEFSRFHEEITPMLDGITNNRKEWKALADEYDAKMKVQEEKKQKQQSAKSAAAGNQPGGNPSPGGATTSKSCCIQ
Beta-1 adrenergic receptor, sequence (P08588 whole entry): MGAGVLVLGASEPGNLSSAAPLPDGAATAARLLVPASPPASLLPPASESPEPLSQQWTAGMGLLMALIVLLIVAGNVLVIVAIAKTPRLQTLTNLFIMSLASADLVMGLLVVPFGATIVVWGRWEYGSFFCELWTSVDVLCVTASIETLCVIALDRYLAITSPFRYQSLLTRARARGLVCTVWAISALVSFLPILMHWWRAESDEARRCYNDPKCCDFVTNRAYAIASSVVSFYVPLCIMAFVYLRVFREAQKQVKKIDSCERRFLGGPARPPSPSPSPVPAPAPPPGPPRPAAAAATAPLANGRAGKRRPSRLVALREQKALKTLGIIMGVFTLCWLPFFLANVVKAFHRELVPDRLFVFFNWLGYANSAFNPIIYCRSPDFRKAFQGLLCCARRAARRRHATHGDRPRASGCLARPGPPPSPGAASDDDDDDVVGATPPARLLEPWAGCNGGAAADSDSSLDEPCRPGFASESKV
5-hydroxytryptamine receptor 6, sequence (P50406 whole entry): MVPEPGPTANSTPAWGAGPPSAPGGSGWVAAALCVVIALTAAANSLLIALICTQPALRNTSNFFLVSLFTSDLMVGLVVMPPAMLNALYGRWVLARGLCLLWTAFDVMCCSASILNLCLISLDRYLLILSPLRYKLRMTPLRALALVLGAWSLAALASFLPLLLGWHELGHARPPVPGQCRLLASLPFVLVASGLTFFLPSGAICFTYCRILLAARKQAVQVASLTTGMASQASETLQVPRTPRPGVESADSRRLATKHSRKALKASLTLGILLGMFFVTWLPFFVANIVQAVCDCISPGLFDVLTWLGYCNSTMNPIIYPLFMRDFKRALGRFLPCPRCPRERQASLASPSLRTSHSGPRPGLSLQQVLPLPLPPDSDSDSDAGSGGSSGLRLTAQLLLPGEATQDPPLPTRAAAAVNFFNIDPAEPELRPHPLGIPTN
Gamma-aminobutyric acid receptor subunit alpha-1, sequence (P62813 whole entry): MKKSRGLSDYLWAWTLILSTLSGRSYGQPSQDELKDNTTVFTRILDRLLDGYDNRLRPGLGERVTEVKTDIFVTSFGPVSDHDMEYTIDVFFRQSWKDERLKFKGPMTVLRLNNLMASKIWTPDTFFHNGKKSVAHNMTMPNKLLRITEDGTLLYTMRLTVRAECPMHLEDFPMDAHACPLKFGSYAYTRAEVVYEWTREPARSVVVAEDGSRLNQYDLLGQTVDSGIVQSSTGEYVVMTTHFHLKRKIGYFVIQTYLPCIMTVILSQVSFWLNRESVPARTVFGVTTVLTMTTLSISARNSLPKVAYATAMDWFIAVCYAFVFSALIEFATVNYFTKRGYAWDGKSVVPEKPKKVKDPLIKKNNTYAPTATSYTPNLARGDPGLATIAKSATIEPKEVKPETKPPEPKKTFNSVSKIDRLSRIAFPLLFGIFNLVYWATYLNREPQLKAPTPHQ
Hydroxycarboxylic acid receptor 2, sequence (Q8TDS4 whole entry): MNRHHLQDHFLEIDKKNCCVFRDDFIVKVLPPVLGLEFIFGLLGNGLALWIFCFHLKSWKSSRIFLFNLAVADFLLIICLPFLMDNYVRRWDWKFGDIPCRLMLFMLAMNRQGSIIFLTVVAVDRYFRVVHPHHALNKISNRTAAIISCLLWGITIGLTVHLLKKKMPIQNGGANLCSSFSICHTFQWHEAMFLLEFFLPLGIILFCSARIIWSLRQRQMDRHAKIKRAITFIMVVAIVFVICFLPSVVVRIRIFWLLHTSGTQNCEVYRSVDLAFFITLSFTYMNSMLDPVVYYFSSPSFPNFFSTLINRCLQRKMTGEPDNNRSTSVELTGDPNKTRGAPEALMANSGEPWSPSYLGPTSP

Compound: N#Cc1ccccc1-c1cc(-c2ccccn2)cn(-c2ccccc2)c1=O
- AC50 [1]: > 30 µM
- AC50 [2]: > 30 µM

Compound: N=C(N)NCCCCCCC(=O)NC(O)C(=O)NCCCCNCCCN (stereo unspecified)
- AC50 [1]: > 30 µM

Compound: NCCCC(O)(P(=O)(O)O)P(=O)(O)O [ALENDRONIC ACID]
- AC50 [3]: > 10 µM
- AC50 (Adenosine receptor A1): > 30 µM
- AC50 [4]: > 30 µM
- AC50 [5]: > 30 µM
- AC50 [2]: > 30 µM
- AC50 [6]: > 30 µM
- AC50 [7]: > 30 µM
- AC50 [8]: > 30 µM

Compound: O=C(CCCN1CCC(n2c(O)nc3ccccc32)CC1)c1ccc(F)cc1 [BENPERIDOL]
- AC50 [1]: > 30 µM

Compound: CCCC(C)(COC(N)=O)COC(=O)NC(C)C (stereo unspecified) [CARISOPRODOL]
- AC50 [4]: > 30 µM
- AC50 [5]: > 30 µM
- AC50 [9]: > 10 µM
- AC50 [8]: > 30 µM

Compound: COCCOC(=O)C1=C(C)NC(C)=C(C(=O)OC/C=C/c2ccccc2)C1c1cccc([N+](=O)[O-])c1 (stereo unspecified) [CILNIDIPINE]
- AC50 [2]: > 50 µM

Compound: N[C@H](Cc1cc(I)c(Oc2cc(I)c(O)c(I)c2)c(I)c1)C(=O)O [DEXTROTHYROXINE]
- AC50 [4]: > 30 µM
- AC50 [5]: > 30 µM
- AC50 [8]: > 30 µM

Compound: COC(=O)N[C@@H](C)CNc1nccc(-c2cn(C(C)C)nc2-c2cc(Cl)cc(NS(C)(=O)=O)c2F)n1 [ENCORAFENIB]
- AC50 [2]: > 30 µM

Compound: CCCN(CC)C(CC)C(=O)Nc1c(C)cccc1C (stereo unspecified) [ETIDOCAINE]
- AC50 [2]: 28 µM

Compound: CC(=O)OCC(CCn1cnc2cnc(N)nc21)COC(C)=O [FAMCICLOVIR]
- AC50 [4]: > 30 µM
- AC50 [5]: > 30 µM
- AC50 [9]: > 10 µM
- AC50 [8]: > 30 µM

Compound: O=C(O)c1ccccc1Nc1cccc(C(F)(F)F)c1 [FLUFENAMIC ACID]
- AC50 [4]: > 30 µM
- AC50 [5]: > 30 µM
- AC50 [8]: > 30 µM

Compound: C#C[C@]1(O)CC[C@H]2[C@@H]3CCC4=CC(=O)CCC4=C3C=C[C@@]21CC [GESTRINONE]
- AC50 [1]: > 30 µM

Compound: CCCCCCOC(=O)CCC(=O)CN [HEXAMINOLEVULINATE]
- AC50 [1]: > 30 µM

Compound: COC1=C(OC)C(=O)C(CCCCCCCCCCO)=C(C)C1=O [IDEBENONE]
- AC50 [3]: > 10 µM
- AC50 [4]: > 30 µM
- AC50 (Substance-K receptor): > 10 µM
- AC50 [5]: > 30 µM
- AC50 [10]: > 10 µM
- AC50 [11]: > 10 µM
- AC50 [8]: > 30 µM

Compound: CC#CCn1c(N2CCC[C@@H](N)C2)nc2c1c(=O)n(Cc1nc(C)c3ccccc3n1)c(=O)n2C [LINAGLIPTIN]
- AC50 [2]: > 150 µM

Compound: Cc1ccc(NC(=O)C2(c3ccc4c(c3)OC(F)(F)O4)CC2)nc1-c1cccc(C(=O)O)c1 [LUMACAFTOR]
- AC50 [2]: > 50 µM

Compound: O=C1CN=C(c2ccccc2)c2cc(Cl)ccc2N1 [NORDAZEPAM]
- AC50 [3]: > 10 µM
- AC50 [4]: > 30 µM
- AC50 (Substance-K receptor): > 10 µM
- AC50 [5]: > 30 µM
- AC50 [10]: > 10 µM
- AC50 [11]: > 10 µM
- AC50 [8]: > 30 µM

Compound: CC(CCc1ccccc1)NC(C)C(O)c1ccc(O)cc1 (stereo unspecified) [NYLIDRIN]
- AC50 [3]: > 10 µM
- AC50 [4]: > 30 µM
- AC50 (Substance-K receptor): > 10 µM
- AC50 [5]: > 30 µM
- AC50 [10]: > 10 µM
- AC50 [11]: > 10 µM
- AC50 [8]: > 30 µM

Compound: O=C1Nc2ccc(Cl)cc2C(c2ccccc2)=NC1O (stereo unspecified) [OXAZEPAM]
- AC50 [3]: > 10 µM
- AC50 [4]: > 30 µM
- AC50 (Substance-K receptor): > 10 µM
- AC50 [5]: > 30 µM
- AC50 [10]: > 10 µM
- AC50 [11]: > 10 µM
- AC50 [8]: > 30 µM

Compound: Cc1ccc(=O)n(-c2ccccc2)c1 [PIRFENIDONE]
- AC50 [2]: > 50 µM

Compound: C[n+]1ccccc1/C=N/O [PRALIDOXIME]
- AC50 (Adenosine receptor A1): > 30 µM
- AC50 [6]: > 30 µM
- AC50 [7]: > 30 µM

Compound: CC(C)CC(N(C)C)C1(c2ccc(Cl)cc2)CCC1 (stereo unspecified) [SIBUTRAMINE]
- AC50 [4]: > 30 µM
- AC50 [5]: > 30 µM
- AC50 [9]: > 10 µM
- AC50 [8]: > 30 µM

Compound: [H]/N=C(/N)N[C@H]1[C@H](O)[C@@H](O)[C@H](O[C@@H]2O[C@@H](C)[C@](O)(C=O)[C@H]2O[C@@H]2O[C@@H](CO)[C@H](O)[C@@H](O)[C@@H]2NC)[C@@H](N/C(N)=N\[H])[C@@H]1O [STREPTOMYCIN]
- AC50 [3]: > 10 µM
- AC50 [4]: > 30 µM
- AC50 [5]: > 30 µM
- AC50 [8]: > 30 µM

Compound: COc1c(O[C@@H]2O[C@H](CO)[C@@H](O)[C@H](O)[C@H]2O)cc2c(c1OC)-c1ccc(SC)c(=O)cc1[C@@H](NC(C)=O)CC2 [THIOCOLCHICOSIDE]
- AC50 [1]: > 30 µM

Compound: N#C[C@@H]1CCCN1C(=O)CNC12CC3CC(CC(O)(C3)C1)C2 [VILDAGLIPTIN]
- AC50 [3]: > 10 µM
- AC50 (Substance-K receptor): > 10 µM
- AC50 [10]: > 10 µM
- AC50 [11]: > 10 µM

Compound: COLISTIN
- AC50 (Adenosine receptor A1): > 30 µM
- AC50 [6]: > 30 µM
- AC50 [7]: > 30 µM

From ChEMBL document CHEMBL5291721, “A preclinical secondary pharmacology resource illuminates target-adverse drug reaction associations of marketed drugs” (Nat Commun, 2023)
